Results: patent publication US11026946B2, “Pharmacologically active alicyclic-substituted pyrazolo[1,5-a]pyrimidine derivatives” (RICHTER GEDEON NYRT., priority 2017, dated 2021)
pEC50: −log10 of the molar value.

How the values were obtained:
GABAB receptors = GABAB receptors (Homo sapiens, UniProt O75899+Q9UBS5); settings: in vitro positive allosteric activity, [35S]GTPγS binding; cited from earlier work
GABAB receptor = target: T1, GABAB receptor (Rattus norvegicus, UniProt O88871+Q9Z0U4); test: In vitro [35S]GTPγS binding assay in rat cortical membranes; assay type: biochemical; settings: PAM EC50, [35S]GTPγS binding, read-out: In vitro PAM potency
T1 construct: from tissue; host or cells: rat brain cortex membranes
Description: In Vitro [^35S]GTPγS Binding Assay in Rat Cortical Membranes
Cortices of freshly harvested rat brains were dissected on an ice-cold surface and homogenized by a glass Dounce homogeniser immediately in ice-cold buffer containing 50 mM Tris, 5 mM MgCl2 and 1 mM EDTA (pH=7.6). Tissue homogenates were centrifuged at 40000 g for 15 min at 4° C. Membrane pellets were resuspended in the same buffer and membranes were incubated for 10 min at 30° C. in a shaking water bath to eliminate endogenous GABA. Homogenates were centrifuged again under the same conditions. The final pellets were resuspended in ice-cold buffer (pH=7.6) containing 50 mM Tris, 100 mM NaCl, 7 mM MgCl2, 1 mM EDTA and 1 mM dithiotreithol (DTT) to yield a concentration of 20 mg tissue weight/ml and frozen at −70° C. until use. The assay was done in a buffer containing 50 mM Tris (pH=7.4), 100 mM NaCl, 7 mM MgCl2, 1 mM EDTA and 1 mM DTT. Each assay tube contained 150 μL GDP (in a final concentration of 50 μM), 100 μL ligand and 125 μL of the membrane suspension (250 μg tissue/tube). The assay tubes were preincubated for 10 min at 30° C. to assure equilibrium. Nonspecific binding was determined in the presence of 10 μM GTPγS: basal binding was determined in the presence of buffer only. After addition of 50 pM [^35S]GTPγS in a volume of 25 μL to the tubes, membranes were incubated for an additional 60 min at 30° C. The assay was terminated by rapid filtration through Packard UniFilter GF/B using a Packard harvester and washed four times with 1 ml ice-cold buffer. After drying the filters at 40° C. for 1 h, 40 μL Microscint (Packard) was added to the filters and radioactivity of the filters was determined by a TopCount NXT (PerkinElmer, Waltham, Mass.: Alper and Nelson, Eur. J. Pharmacol. 1998, 343, 303-312; Rinken et al, Biochem. Pharmacol. 1999, 57, 155-162). Data thus gathered were used to determine PAM EC50 values for each compound as primary in vitro activity end point.

adult rats = test: Foot shock-induced ultrasonic vocalization (USV) in adult rats; assay type: in vivo, rat; settings: 1 mg/kg per os, 1 h before shocking, male Wistar rats, versus vehicle
Description: Foot Shock-Induced Ultrasonic Vocalization (USV) in Adult Rats
(§1) Under stressful conditions, adult rats emit 22 kHz ultrasounds that can be reduced by various pharmacological treatments (De Vry et al, Eur. J. Pharmacol. 1993, 249, 331-339; Sanchez, Eur. J. Pharmacol. 2003, 463, 133-143). […] Therefore, a foot shock-induced vocalization paradigm in adult rats was used to assess efficacy of centrally acting GABAB receptor ligands. Behavioral measurements were carried out on male Wistar rats (200-250 g, Toxicoop, Hungary). Rats were housed in groups of four in plastic cages with a wire grid top in a temperature and light-controlled laboratory animal care unit (22±2° C., 12-h light/dark cycle, lights on at 6:00 AM) with ad libitum access to commercial pellet rat food and tap water. Investigations were approved by the Local Ethical Committee of Gedeon Richter Plc. and were carried out in strict compliance with the European Directive 2010/63/EU regarding the care and use of laboratory animals for experimental procedures and all efforts were made to minimize the number of animals as well as their suffering. In order to evoke emission of ultrasounds, animals were footshocked after a habituation period of 30 s (6 shocks, 1 s, 0.8 mA each, inter-shock interval 10 s) in a sound attenuated shocking chamber (Experimetria, 40×40×80 cm). Investigational compounds were administered at the dose of 1 mg/kg in a solid dispersion formulation in distilled water 1 h before shocking per os. Vocalizations were measured right after the last footshock for 10 min with a Metris Sonotrack system and the total time of vocalizations was registered. Vocalization of parallel vehicle treated animals was considered as control value and inhibition percent was calculated for each compound. At approximately 75 min after treatment and behavioral measurements, blood and brain samples were harvested in order to determine exposures associated with in vivo activity.

[1] = Plasma and brain levels after the USV assay; assay type: in vivo, rat; settings: 1 mg/kg per os, approximately 75 min after treatment; for brain exposure at 1 mg/kg: rat brain; for plasma exposure at 1 mg/kg: rat plasma
Description: as §1
In Table 2 compounds of this invention measured in the USV assay are listed. In Table 3 plasma and brain levels of compounds of this invention are listed.

Sequence of GABAB receptors (O75899 42-941): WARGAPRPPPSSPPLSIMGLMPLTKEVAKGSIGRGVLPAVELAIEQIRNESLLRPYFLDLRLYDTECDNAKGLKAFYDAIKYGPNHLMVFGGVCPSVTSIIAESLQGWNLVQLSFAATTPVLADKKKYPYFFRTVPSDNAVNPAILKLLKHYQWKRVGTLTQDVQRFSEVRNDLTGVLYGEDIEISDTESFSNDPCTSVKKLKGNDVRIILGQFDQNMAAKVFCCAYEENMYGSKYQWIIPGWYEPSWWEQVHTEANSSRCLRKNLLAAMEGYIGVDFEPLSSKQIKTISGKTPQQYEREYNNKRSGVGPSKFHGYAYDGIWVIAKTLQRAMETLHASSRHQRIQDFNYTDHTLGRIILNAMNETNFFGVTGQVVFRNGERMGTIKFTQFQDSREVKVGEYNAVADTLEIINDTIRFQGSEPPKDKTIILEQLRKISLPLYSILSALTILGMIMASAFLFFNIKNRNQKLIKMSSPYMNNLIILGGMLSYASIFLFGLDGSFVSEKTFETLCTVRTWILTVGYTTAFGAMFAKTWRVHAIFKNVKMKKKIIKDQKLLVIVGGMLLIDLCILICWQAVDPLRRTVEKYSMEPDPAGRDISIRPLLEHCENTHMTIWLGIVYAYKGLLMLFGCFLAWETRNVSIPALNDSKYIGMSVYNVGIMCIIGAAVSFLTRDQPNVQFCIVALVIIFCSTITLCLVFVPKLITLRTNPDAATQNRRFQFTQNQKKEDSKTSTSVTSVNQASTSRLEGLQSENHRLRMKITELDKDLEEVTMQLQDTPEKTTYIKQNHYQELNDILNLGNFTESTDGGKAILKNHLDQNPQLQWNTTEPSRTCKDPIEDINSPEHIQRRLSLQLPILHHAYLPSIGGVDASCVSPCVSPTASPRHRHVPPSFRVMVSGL
Sequence of GABAB receptors (Q9UBS5 15-961 limits assumed): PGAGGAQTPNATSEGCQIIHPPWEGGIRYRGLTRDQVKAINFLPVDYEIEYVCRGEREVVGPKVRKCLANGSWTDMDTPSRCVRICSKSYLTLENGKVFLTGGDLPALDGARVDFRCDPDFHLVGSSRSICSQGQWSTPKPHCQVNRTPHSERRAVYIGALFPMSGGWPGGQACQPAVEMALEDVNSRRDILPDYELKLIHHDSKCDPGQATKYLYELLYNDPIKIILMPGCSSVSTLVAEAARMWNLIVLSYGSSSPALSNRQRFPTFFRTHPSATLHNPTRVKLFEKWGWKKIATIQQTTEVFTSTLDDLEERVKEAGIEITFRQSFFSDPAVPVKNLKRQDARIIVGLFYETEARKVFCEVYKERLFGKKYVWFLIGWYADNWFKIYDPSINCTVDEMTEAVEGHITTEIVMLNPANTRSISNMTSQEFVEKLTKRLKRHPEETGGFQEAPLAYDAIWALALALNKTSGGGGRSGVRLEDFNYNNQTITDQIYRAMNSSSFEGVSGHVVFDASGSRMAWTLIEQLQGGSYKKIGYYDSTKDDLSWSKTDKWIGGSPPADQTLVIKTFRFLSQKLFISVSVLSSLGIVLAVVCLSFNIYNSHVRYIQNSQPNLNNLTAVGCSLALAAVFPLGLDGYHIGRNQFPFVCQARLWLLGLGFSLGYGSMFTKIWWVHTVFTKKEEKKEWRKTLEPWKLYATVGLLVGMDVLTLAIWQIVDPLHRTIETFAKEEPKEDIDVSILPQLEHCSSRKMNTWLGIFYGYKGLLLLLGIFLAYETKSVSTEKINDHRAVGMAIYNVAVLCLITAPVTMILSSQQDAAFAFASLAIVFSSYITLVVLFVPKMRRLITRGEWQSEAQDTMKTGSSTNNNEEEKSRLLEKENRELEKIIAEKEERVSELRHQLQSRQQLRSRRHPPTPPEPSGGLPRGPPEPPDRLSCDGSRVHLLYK
T1 sequence (O88871 41-940): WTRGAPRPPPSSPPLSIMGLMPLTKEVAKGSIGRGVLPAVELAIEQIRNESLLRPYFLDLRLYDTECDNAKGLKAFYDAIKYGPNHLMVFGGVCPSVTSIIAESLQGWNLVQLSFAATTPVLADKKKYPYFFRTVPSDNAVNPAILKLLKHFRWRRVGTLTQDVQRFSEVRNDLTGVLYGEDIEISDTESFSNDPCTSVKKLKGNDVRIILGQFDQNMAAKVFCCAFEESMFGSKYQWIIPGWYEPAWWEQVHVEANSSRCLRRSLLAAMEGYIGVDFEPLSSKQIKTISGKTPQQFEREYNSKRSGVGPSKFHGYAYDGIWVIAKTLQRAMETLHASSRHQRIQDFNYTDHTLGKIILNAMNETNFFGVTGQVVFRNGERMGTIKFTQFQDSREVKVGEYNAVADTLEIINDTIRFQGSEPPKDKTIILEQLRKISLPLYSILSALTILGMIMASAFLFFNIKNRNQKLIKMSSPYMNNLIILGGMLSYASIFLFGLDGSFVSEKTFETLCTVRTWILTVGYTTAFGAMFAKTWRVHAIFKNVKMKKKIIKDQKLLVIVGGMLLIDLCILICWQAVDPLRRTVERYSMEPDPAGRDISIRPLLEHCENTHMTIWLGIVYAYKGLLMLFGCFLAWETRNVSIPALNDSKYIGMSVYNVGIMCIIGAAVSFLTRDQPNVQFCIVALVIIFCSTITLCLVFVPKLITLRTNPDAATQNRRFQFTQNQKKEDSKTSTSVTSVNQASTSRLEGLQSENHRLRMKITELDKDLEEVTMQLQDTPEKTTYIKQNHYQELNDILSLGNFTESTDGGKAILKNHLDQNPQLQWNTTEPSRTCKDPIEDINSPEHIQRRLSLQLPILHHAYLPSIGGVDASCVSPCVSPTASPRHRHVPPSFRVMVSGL
T1 sequence (Q9Z0U4 17-960 limits assumed): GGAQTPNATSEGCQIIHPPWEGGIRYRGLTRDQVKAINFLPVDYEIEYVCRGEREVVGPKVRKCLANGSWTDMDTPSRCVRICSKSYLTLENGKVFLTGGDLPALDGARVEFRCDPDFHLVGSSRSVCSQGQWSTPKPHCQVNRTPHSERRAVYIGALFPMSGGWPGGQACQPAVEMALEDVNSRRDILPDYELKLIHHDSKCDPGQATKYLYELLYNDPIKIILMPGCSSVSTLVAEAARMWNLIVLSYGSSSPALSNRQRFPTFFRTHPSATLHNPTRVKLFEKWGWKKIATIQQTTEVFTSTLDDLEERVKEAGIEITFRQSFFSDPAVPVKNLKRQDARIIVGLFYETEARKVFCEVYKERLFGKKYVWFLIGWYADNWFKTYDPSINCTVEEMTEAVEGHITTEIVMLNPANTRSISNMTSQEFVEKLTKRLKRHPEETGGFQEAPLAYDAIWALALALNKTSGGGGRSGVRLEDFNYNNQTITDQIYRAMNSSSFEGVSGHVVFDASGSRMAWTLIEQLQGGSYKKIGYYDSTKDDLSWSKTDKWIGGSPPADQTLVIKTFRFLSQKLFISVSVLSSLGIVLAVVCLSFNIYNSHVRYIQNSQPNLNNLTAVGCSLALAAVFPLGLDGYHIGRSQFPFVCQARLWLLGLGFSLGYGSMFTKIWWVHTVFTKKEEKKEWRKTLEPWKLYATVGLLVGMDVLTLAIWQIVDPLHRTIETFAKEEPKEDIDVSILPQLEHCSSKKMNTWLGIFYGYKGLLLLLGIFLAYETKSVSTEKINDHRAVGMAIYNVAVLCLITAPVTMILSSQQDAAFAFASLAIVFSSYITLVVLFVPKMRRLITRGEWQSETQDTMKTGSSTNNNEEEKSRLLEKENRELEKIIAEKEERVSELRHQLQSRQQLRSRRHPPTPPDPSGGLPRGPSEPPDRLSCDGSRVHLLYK

Row | Structure (SMILES) | binding potency (Faghih et al.) (GABAB receptors) | pEC50 (GABAB receptor) | USV inhibition at 1 mg/kg (%) (adult rats) | brain exposure at 1 mg/kg [1] [ng/g] | plasma exposure at 1 mg/kg [1] [ng/mL]
1 | CCCC(c1ccc(Cl)cc1)c1cc2nc(C)cc(N3CCCCC3CCO)n2n1 (stereo not drawn) [Example 5-1] | nanomolar | – | – | – | –
2 | Cc1cc(N2CCCCC2CCO)n2nc(CC34CC5CC(CC(C5)C3)C4)cc2n1 (stereo not drawn) [Example 7-1] | high micromolar | – | – | – | –
3 | Cc1nc2cc([C@H]3CC[C@H](C(F)(F)F)CC3)nn2c(N2CCC[C@](C(=O)O)(C(C)C)C2)c1C(C)C [Example 2, (3S)-1-[5-Methyl-6-(propan-2-yl)-2-[trans-4-(trifluoromethyl)cyclohexyl]-pyrazolo[1,5-a]pyrimidin-7-yl]-3-(propan-2-yl)piperidine-3-carboxylic Acid] | – | 8.00 to 9.00 | 85 | 74 | 188
4 | CC[C@]1(C(=O)O)CCCN(c2c(C(C)C)c(C)nc3cc([C@H]4CC[C@H](C(F)(F)F)CC4)nn23)C1 (single isomer, unassigned) [Example 12] | – | 8.00 to 9.00 | 59 | 62 | 121
5 | CCC(c1ccc(Cl)cc1)c1cc2nc(C)cc(N3CCCCC3CCO)n2n1 (stereo not drawn) [Example 3-1] | nanomolar | – | – | – | –
6 | Cc1nc2cc([C@H]3CC[C@H](C(F)(F)F)CC3)nn2c(N2CCC[C@@](C)(C(=O)O)C2)c1C(C)C [Example 3, (3R)-3-methyl-1-[5-methyl-6-(propan-2-yl)-2-[trans-4-(trifluoromethyl)cyclohexyl]-pyrazolo [1,5-a]pyrimidin-7-yl]piperidine-3-carboxylic Acid] | – | > 9.00 | 100 | 18 | 58
